Laboratory results taken from US12227488B2, “Small molecule degraders of Helios and methods of use” (DANA-FARBER CANCER INSTITUTE, INC., priority 2018, dated 2025).

Columns and labels:
CRBN and Helios (IKZF2) = target: T1, CRBN and Helios (IKZF2) (Homo sapiens, UniProt Q96SW2+Q9UKS7); assay: TR-FRET dimerization assay (CRBN-IKZF2 ternary complex formation); format: binding; conditions: n=1
T1 construct: His (N); Strep (N)
Procedure, shortened: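 BODIPY-labeled DDB1ΔB-CRBN and in vitro biotinylated IKZF2 were treated with increasing compound concentrations plus tracer Terbium-Streptavidin and incubated 15 min at rt. Recruitment was quantified as the 520/490 nm TR-FRET ratio; values are single measurements (n=1), each averaged from at least three technical replicates.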

IKZF2 = assay: Cellular degradation assay, eGFP-IKZF2Δ fusion with mCherry reporter in Flp-In 293 cells; format: cell-based; conditions: 5 h incubation, n=1
Procedure, shortened: (§1)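 Flp-In 293 cells stably expressing eGFP-tagged degron fusions with P2A-mCherry reporter were treated with compound titrations (0.5% DMSO) for 5 hours. Imaging quantified GFP-positive/mCherry-positive cell fraction per well; DC50 at 5 h from nonlinear variable-slope fit.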

IKZF1 = target: T2, IKZF1 (Homo sapiens, UniProt Q13422); assay: Cellular degradation assay, eGFP-IKZF1Δ fusion with mCherry reporter in Flp-In 293 cells; format: cell-based; conditions: 5 h incubation, n=1
T2 construct: expressed in transfected cells; host or cells: Flp-In 293
T2 sequence (Q13422 83-213 isoform Q13422-7 limits assumed): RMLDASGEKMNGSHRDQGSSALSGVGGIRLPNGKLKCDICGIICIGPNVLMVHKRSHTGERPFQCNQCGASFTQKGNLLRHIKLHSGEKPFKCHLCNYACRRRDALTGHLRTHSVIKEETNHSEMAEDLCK
T2 sequence (Q96SW2 whole entry partner, the tested form may be a part): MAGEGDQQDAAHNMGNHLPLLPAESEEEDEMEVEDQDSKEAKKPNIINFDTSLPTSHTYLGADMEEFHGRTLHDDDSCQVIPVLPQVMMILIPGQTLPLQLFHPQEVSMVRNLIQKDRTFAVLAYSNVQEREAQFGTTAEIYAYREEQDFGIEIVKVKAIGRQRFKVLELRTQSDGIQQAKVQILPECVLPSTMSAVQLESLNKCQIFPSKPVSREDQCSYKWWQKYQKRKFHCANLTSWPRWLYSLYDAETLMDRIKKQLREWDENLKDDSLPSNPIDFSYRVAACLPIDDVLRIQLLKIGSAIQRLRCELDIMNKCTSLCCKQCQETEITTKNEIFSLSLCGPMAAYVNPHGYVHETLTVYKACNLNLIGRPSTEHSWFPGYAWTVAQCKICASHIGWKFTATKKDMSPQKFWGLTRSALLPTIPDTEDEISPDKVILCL
T2 sequence (Q16531 2-1140 partner limits assumed): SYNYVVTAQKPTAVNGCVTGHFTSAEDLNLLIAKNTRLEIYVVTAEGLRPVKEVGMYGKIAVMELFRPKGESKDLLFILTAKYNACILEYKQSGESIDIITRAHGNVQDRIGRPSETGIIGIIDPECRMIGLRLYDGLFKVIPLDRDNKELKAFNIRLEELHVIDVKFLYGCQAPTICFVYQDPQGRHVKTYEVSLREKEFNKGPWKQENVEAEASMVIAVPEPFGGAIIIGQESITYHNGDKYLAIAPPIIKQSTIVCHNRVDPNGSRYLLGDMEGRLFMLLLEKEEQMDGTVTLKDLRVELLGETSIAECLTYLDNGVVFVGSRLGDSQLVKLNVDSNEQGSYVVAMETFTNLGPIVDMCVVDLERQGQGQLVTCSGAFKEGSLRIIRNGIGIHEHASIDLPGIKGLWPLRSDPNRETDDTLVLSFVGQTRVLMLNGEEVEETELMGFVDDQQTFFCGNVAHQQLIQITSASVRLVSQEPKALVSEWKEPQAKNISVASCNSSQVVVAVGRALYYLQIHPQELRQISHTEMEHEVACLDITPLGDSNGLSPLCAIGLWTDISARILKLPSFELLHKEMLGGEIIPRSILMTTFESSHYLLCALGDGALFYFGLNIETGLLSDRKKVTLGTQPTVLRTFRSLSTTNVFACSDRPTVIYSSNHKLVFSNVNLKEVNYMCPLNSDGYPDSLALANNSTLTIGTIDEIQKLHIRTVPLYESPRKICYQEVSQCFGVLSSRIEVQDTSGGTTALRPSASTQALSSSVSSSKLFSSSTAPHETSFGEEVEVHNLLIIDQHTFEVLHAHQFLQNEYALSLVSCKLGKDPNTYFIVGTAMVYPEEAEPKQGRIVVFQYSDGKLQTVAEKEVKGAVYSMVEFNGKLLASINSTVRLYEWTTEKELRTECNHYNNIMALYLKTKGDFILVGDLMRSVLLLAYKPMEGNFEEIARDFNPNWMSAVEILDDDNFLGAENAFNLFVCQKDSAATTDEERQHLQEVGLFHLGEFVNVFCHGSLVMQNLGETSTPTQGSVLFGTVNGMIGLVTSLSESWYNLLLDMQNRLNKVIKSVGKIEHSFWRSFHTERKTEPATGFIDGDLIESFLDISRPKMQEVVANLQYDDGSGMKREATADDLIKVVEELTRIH
Procedure, shortened: as §1

SALL4 ZNF1-2 = target: T3, SALL4 ZNF1-2 (Homo sapiens, UniProt Q96SW2+Q9UJQ4); assay: Cellular degradation assay, eGFP-SALL4 ZnF1-2 fusion with mCherry reporter in Flp-In 293 cells; format: cell-based; conditions: 5 h incubation, n=1
T3 construct: IKZF1Δ, IKZF2Δ, GSPT1 and SALL4 ZnF1-2 were subcloned; expressed in transfected cells; host or cells: Flp-In 293
T3 sequence (Q9UJQ4 378-438 limits assumed): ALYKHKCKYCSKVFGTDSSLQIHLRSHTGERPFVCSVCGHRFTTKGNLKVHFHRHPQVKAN
T3 sequence (Q96SW2 whole entry, the tested form may be a part): as the sequence (Q96SW2 whole entry partner, the tested form may be a part) above
T3 sequence (Q16531 whole entry partner, the tested form may be a part): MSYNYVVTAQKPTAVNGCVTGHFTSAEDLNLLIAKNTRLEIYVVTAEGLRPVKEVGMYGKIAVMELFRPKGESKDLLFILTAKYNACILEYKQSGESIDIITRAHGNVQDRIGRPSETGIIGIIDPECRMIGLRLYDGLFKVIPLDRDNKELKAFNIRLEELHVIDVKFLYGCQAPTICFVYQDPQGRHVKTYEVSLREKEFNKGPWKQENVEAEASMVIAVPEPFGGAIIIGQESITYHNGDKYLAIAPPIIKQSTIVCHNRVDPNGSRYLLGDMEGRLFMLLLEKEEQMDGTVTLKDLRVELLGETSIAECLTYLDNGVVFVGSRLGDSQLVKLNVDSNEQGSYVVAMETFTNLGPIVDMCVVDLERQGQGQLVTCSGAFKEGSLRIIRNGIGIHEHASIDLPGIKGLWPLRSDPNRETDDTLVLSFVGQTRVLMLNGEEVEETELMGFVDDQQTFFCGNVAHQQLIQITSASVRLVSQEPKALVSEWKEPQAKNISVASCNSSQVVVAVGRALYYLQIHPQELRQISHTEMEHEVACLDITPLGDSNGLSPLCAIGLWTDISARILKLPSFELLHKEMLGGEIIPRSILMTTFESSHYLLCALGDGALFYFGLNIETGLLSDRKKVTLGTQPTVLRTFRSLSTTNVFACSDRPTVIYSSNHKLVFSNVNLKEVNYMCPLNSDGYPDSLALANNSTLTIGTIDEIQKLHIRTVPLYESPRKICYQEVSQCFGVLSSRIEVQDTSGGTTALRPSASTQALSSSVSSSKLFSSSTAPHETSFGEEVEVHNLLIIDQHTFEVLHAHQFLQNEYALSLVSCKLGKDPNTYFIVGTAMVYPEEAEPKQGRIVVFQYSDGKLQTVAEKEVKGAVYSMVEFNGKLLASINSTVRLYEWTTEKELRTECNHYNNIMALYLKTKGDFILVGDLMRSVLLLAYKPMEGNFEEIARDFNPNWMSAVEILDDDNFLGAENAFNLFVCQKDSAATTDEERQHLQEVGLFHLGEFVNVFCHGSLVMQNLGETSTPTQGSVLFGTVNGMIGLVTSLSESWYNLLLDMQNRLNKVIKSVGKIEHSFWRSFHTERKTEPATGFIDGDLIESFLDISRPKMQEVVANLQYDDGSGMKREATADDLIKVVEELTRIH
Procedure, shortened: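 Flp-In 293 cells stably expressing eGFP-SALL4 ZnF1-2 fusion plus mCherry reporter were treated with compound titrations (0.5% DMSO) for 5 hours. Imaging at 488/561 nm gave, per well, the fraction of GFP-positive among mCherry-positive cells.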

GSPT1 = GSPT1 (Homo sapiens, UniProt P15170+Q96SW2); assay: Cellular degradation assay, eGFP-GSPT1 fusion with mCherry reporter in Flp-In 293 cells; format: cell-based; set-up: expressed in transfected cells; host or cells: Flp-In 293; conditions: 5 h incubation, n=1
Sequence of GSPT1 (P15170 whole entry, the tested form may be a part): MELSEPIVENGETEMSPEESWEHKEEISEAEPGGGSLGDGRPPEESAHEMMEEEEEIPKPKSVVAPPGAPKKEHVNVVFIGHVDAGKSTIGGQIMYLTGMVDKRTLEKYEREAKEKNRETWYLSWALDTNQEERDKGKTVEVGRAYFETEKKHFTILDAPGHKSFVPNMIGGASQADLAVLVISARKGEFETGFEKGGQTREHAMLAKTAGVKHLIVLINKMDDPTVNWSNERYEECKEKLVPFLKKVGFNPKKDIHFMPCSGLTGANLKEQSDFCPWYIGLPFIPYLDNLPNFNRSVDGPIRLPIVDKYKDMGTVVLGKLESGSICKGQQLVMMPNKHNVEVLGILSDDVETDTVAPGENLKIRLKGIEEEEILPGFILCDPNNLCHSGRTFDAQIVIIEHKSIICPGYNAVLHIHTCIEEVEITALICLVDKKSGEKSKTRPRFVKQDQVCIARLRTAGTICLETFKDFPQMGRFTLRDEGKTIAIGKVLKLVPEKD
Sequence of GSPT1 (Q96SW2 whole entry, the tested form may be a part): as the sequence (Q96SW2 whole entry partner, the tested form may be a part) above
Sequence of GSPT1 (Q16531 whole entry partner, the tested form may be a part): as the sequence (Q16531 whole entry partner, the tested form may be a part) above
Procedure, shortened: as §1

[1] = compound concentration 6.6667E−05
[2] = compound concentration 6.6667E−06
[3] = compound concentration 6.6667E−07 (667 nM)
[4] = compound concentration 2.00E−05
[5] = compound concentration 2.00E−06
[6] = compound concentration 2.00E−07

T1 sequence (Q96SW2 whole entry): as the sequence (Q96SW2 whole entry partner, the tested form may be a part) above
T1 sequence (Q9UKS7 whole entry): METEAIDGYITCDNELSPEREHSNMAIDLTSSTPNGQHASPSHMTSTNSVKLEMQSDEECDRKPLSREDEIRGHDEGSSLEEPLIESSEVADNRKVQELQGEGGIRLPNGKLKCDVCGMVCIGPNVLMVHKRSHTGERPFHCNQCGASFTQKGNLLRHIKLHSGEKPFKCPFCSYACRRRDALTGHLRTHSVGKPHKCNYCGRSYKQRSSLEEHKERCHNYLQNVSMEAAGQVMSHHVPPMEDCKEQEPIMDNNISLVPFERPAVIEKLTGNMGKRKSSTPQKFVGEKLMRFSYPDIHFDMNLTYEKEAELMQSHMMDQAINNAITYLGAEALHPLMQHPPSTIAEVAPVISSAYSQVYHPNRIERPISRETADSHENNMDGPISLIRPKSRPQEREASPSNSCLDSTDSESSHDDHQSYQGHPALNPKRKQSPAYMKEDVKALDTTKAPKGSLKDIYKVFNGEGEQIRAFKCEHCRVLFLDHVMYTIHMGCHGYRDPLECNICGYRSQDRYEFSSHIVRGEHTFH

Compound | TR-FRET-IKZF2 (Normalized to CC-885) (CRBN and Helios (IKZF2); [1]) | TR-FRET-IKZF2 (Normalized to CC-885) (CRBN and Helios (IKZF2); [2]) | TR-FRET-IKZF2 (Normalized to CC-885) (CRBN and Helios (IKZF2); [3]) | IKZF2 GFP/RFP Relative Abundance (IKZF2; [4]) | IKZF2 GFP/RFP Relative Abundance (IKZF2; [5]) | IKZF2 GFP/RFP Relative Abundance (IKZF2; [6]) | IKZF1 GFP/RFP Relative Abundance (IKZF1; [4]) | IKZF1 GFP/RFP Relative Abundance (IKZF1; [5]) | IKZF1 GFP/RFP Relative Abundance (IKZF1; [6]) | SALL4 ZNF1-2 GFP/RFP Relative Abundance (SALL4 ZNF1-2; [4]) | SALL4 ZNF1-2 GFP/RFP Relative Abundance (SALL4 ZNF1-2; [5]) | SALL4 ZNF1-2 GFP/RFP Relative Abundance (SALL4 ZNF1-2; [6]) | GSPT1 GFP/RFP Relative Abundance (GSPT1; [4]) | GSPT1 GFP/RFP Relative Abundance (GSPT1; [5]) | GSPT1 GFP/RFP Relative Abundance (GSPT1; [6])
CN(C)C(=O)Cc1ccc(NC2=CC(=O)N(C3CCC(=O)NC3=O)C2=O)cc1 (stereo not drawn) [Compound 36, 2-(4-((1-(2,6-dioxopiperidin-3-yl)-2,5-dioxo-2,5-dihydro-1H-pyrrol-3-yl)amino)phenyl)-N,N-dimethylacetamide] | 0.183 | 0.148 | 0.115 | 0.943 | 1.027 | 1.049 | 0.687 | 0.796 | 0.860 | 1.000 | 1.033 | 0.974 | 1.112 | 1.009 | 1.006
COC(=O)CCNC1=CC(=O)N(C2CCC(=O)NC2=O)C1=O (stereo not drawn) [Compound 14, Methyl 3-((1-(2,6-dioxopiperidin-3-yl)-2,5-dioxo-2,5-dihydro-1H-pyrrol-3-yl)amino)propanoate] | 0.046 | 0.040 | 0.022 | 1.022 | 0.982 | 1.040 | 1.033 | 1.031 | 1.043 | 0.955 | 0.944 | 0.983 | 1.058 | 1.018 | 0.915
Cc1ccc(NC(=O)NCc2ccc(NC3=CC(=O)N(C4CCC(=O)NC4=O)C3=O)cc2)cc1Cl (stereo not drawn) [Compound 46, 1-(3-chloro-4-methylphenyl)-3-(4-((1-(2,6-dioxopiperidin-3-yl)-2,5-dioxo-2,5-dihydro-1H-pyrrol-3-yl)amino)benzyl)urea] | 0.787 | 0.828 | 0.701 | 0.242 | 0.361 | 0.510 | 0.045 | 0.087 | 0.112 | 0.950 | 0.906 | 0.854 | 0.048 | 0.089 | 0.076
CCOC(=O)CN(C)C1=CC(=O)N(C2CCC(=O)NC2=O)C1=O (stereo not drawn) [Compound 17, Ethyl N-(1-(2,6-dioxopiperidin-3-yl)-2,5-dioxo-2,5-dihydro-1H-pyrrol-3-yl)-N-methylglycinate] | 0.043 | 0.032 | 0.015 | 1.006 | 0.996 | 1.037 | 1.020 | 1.018 | 1.025 | 0.897 | 0.912 | 0.895 | 0.942 | 1.001 | 0.795
Cc1ccc(NC(=O)Nc2ccc(NC3=CC(=O)N(C4CCC(=O)NC4=O)C3=O)cc2)cc1Cl (stereo not drawn) [Compound 42, 1-(3-chloro-4-methylphenyl)-3-(4-((1-(2,6-dioxopiperidin-3-yl)-2,5-dioxo-2,5-dihydro-1H-pyrrol-3-yl)amino)phenyl)urea] | 0.407 | 0.318 | 0.209 | 1.056 | 1.050 | 0.999 | 0.775 | 0.536 | 0.577 | 1.122 | 0.997 | 1.018 | 0.118 | 0.182 | 0.215
O=C1CCC(N2C(=O)C=C(Nc3cnc4ccccc4c3)C2=O)C(=O)N1 (stereo not drawn) [Compound 27, 3-(2,5-dioxo-3-(quinolin-3-ylamino)-2,5-dihydro-1H-pyrrol-1-yl)piperidine-2,6-dione] | 0.137 | 0.105 | 0.084 | 1.004 | 0.990 | 0.931 | 0.701 | 0.776 | 0.801 | 1.026 | 1.005 | 0.913 | 0.881 | 1.083 | 0.987
CN(C)C(=O)c1cccc(NC2=CC(=O)N(C3CCC(=O)NC3=O)C2=O)c1 (stereo not drawn) [Compound 33, 3-((1-(2,6-dioxopiperidin-3-yl)-2,5-dioxo-2,5-dihydro-1H-pyrrol-3-yl)amino)-N,N-dimethylbenzamide] | 0.584 | 0.491 | 0.452 | 0.372 | 0.521 | 0.570 | 0.339 | 0.413 | 0.445 | 0.783 | 0.813 | 0.860 | 0.944 | 0.952 | 0.956
O=C1CCC(N2C(=O)C=C(Nc3ccccc3)C2=O)C(=O)N1 (stereo not drawn) [Compound 2, 3-(2,5-dioxo-3-(phenylamino)-2,5-dihydro-1H-pyrrol-1-yl)piperidine-2,6-dione] | 0.386 | 0.306 | 0.286 | 0.878 | 0.920 | 0.864 | 0.143 | 0.143 | 0.147 | 0.724 | 0.762 | 0.774 | 0.763 | 0.903 | 0.930
Cc1ccc(NC(=O)NCCNC2=CC(=O)N(C3CCC(=O)NC3=O)C2=O)cc1Cl (stereo not drawn) [Compound 41, 1-(3-chloro-4-methylphenyl)-3-(2-((1-(2,6-dioxopiperidin-3-yl)-2,5-dioxo-2,5-dihydro-1H-pyrrol-3-yl)amino)ethyl)urea] | 0.170 | 0.126 | 0.104 | 0.969 | 1.027 | 1.040 | 0.638 | 0.909 | 1.003 | 1.020 | 0.994 | 1.004 | 0.038 | 0.062 | 0.077
CN(C)C(=O)Cc1cccc(NC2=CC(=O)N(C3CCC(=O)NC3=O)C2=O)c1 (stereo not drawn) [Compound 35, 2-(3-((1-(2,6-dioxopiperidin-3-yl)-2,5-dioxo-2,5-dihydro-1H-pyrrol-3-yl)amino)phenyl)-N,N-dimethylacetamide] | 0.520 | 0.447 | 0.402 | 0.667 | 0.709 | 0.806 | 0.154 | 0.181 | 0.182 | 0.928 | 0.903 | 0.888 | 0.975 | 1.074 | 0.938
